Like-named read-outs stand apart in the source and are kept apart here.
What was measured:
in vitro = format: cell-based; conditions: human
Procedure: H1-HeLa cell viability was measured using the CellTiter-Glo® Luminescent Cell Viability Assay kit (Promega, Cat #G7573) according to the manufacturer's protocol. H1-HeLa cells were maintained in Dulbecco's Modified Eagle's Medium with high glucose (Gibco, Cat #: 11995073) supplemented with 10% FBS (HyClone, Cat #: SH303396.03), 100 units/mL penicillin and 100 µg/mL streptomycin (Gibco, Cat #: 15140122). One day before compound treatment, H1-HeLa cells were seeded at […] into 96-well plates (Corning, Cat #3904) in Opti-MEM (Gibco, Cat #: 31985070) supplemented with 2% FBS, and were incubated at 37° C. in a 100% humid atmosphere containing 5% (v/v) CO2. After overnight incubation, the cells were treated with three-fold serial dilutions of the compound. At 96 hours post treatment, CellTiter-Glo reagents were added into each well and luminescence signals were recorded by an EnVision plate reader. The relative cell viability was calculated by normalizing the absorbance of the compound-treated groups to that of the DMSO-treated groups (set as 100% viability) and 10 μM puromycin treated groups (set as 0% viability). The CC50 (compound concentration for reducing 50% of cell viability) was calculated using a nonlinear regression model (four parameters).

[1] = HCV Replicon 1B CC50, calcein AM (Example Q); format: cell-based; conditions: calcein AM fluorescence, read-out: HCV Replicon 1B CC50 (nM) (per Ex. Q)
Procedure: Compounds were serially diluted in ten steps of 1:3 dilutions in 384-well plates. All serial dilutions were performed in four replicates per compound within the same 384-well plate. An HCV protease inhibitor ITMN-191 at […] was added as a control of 100% inhibition of HCV replication while puromycin at 10 mM was included as a control of 100% cytotoxicity. To each well of a black polystyrene 384-well plate (Greiner Bio-one, Monroe, NC), 90 μL of cell culture medium (without Geneticin) containing 2000 suspended HCV replicon cells was added with a Biotek μFlow workstation. For compound transfer into cell culture plates, 0.4 μL of compound solution from the compound serial dilution plate was transferred to the cell culture plate on a Biomek FX workstation. The DMSO concentration in the final assay wells was 0.44%. The plates were incubated for 3 days at 37° C. with 5% CO2 and 85% humidity. The HCV replicon assay was a multiplex assay, able to assess both cytotoxicity and antireplicon activity from the same well. The CC50 assay was performed first. The media in the 384-well cell culture plate was aspirated, and the wells were washed four times with 100 μL of PBS each, using a Biotek ELX405 plate washer. A volume of 50 μL of a solution containing 400 nM calcein AM (Anaspec, Fremont, CA) in 1×PBS was added to each well of the plate with a Biotek μFlow workstation. The plate was incubated for 30 min at room temperature before the fluorescence signal (excitation 490 nm, emission 520 nm) was measured with a Perkin-Elmer Envision plate reader. The EC50 assay was performed in the same wells as the CC50 assay. The calcein-PBS solution in the 384-well cell culture plate was aspirated with a Biotek ELX405 plate washer. A volume of 20 μL of Dual-Glo luciferase buffer (Promega, Madison, WI) was added to each well of the plate with a Biotek μFlow Workstation. The plate was incubated for 10 min at room temperature. A volume of 20 μL of a solution containing a 1:100 mixture of Dual-Glo Stop & Glo substrate (Promega, Madison, WI) and Dual-Glo Stop & Glo buffer (Promega, Madison, WI) was added to each well of the plate with a Biotek μFlow Workstation. The plate was then incubated at room temperature for 10 min before the luminescence signal was measured with a Perkin-Elmer Envision Plate Reader.

| SMILES | CC50 at 96 h (in vitro) [µM] | CC50 at 3 days ([1]; HCV replicon cells) [nM] | CC50 at 3 days ([1]; HCV replicon cells (1B)) [nM] |
| --- | --- | --- | --- |
| CCCCCCCCCCCCCCCCCCOC[C@@H](COP(=O)(O)OC[C@@]1(C#N)O[C@@H](c2ccc3c(N)ncnn23)[C@H](O)[C@@H]1O)Oc1ccc(C#N)nc1 [Compound 72, ((2R,3S,4R,5S)-5-(4-aminopyrrolo[2,1-f][1,2,4]triazin-7-yl)-2-cyano-3,4-dihydroxytetrahydrofuran-2-yl)methyl ((S)-2-((6-cyanopyridin-3-yl)oxy)-3-(octadecyloxy)propyl) hydrogen phosphate] | 5.1 | > 44400 | – |
| CCCCCCCCCCCCCCCCCCC[C@H](COP(=O)(O)OC[C@@]1(C#N)O[C@@H](c2ccc3c(N)ncnn23)[C@H](O)[C@@H]1O)OCc1cc(Cl)cc(C#N)c1 [Compound 82, ((2R,3S,4R,5S)-5-(4-aminopyrrolo[2,1-f][1,2,4]triazin-7-yl)-2-cyano-3,4-dihydroxytetrahydrofuran-2-yl)methyl ((R)-2-((3-chloro-5-cyanobenzyl)oxy)henicosyl) hydrogen phosphate] | 4.03 | – | > 44400 |
| CCCCCCCCCCCCCCCC[C@@H](COP(=O)(O)OC[C@@]1(C#N)O[C@@H](c2ccc3c(N)ncnn23)[C@H](O)[C@@H]1O)OCc1cc(F)cc(C#N)c1 [Compound 79, ((2R,3S,4R,5S)-5-(4-aminopyrrolo[2,1-f][1,2,4]triazin-7-yl)-2-cyano-3,4-dihydroxytetrahydrofuran-2-yl)methyl ((S)-2-((3-cyano-5-fluorobenzyl)oxy)octadecyl) hydrogen phosphate] | 6.74 | – | > 44400 |
| CCCCCCCCCCCCCCC[C@H](COP(=O)(O)OC[C@@]1(C#N)O[C@@H](c2ccc3c(N)ncnn23)[C@H](O)[C@@H]1O)OCc1cc(F)cc(C#N)c1 [Compound 80, ((2R,3S,4R,5S)-5-(4-aminopyrrolo[2,1-f][1,2,4]triazin-7-yl)-2-cyano-3,4-dihydroxytetrahydrofuran-2-yl)methyl ((R)-2-((3-cyano-5-fluorobenzyl)oxy)heptadecyl) hydrogen phosphate] | 7.08 | – | > 44400 |
| CCCCCCCCCCCCCCCCCCOC[C@H](COP(=O)(O)OC[C@@]1(C#N)O[C@@H](c2ccc3c(N)ncnn23)[C@H](O)[C@@H]1O)OCc1cc(F)cc(C#N)c1 [Compound 1, ((2R,3S,4R,5S)-5-(4-aminopyrrolo[2,1-f][1,2,4]triazin-7-yl)-2-cyano-3,4-dihydroxytetrahydrofuran-2-yl)methyl ((R)-2-((3-cyano-5-fluorobenzyl)oxy)-3-(octadecyloxy)propyl) hydrogen phosphate] | 3.62 | – | > 44400 |
| CCCCCCCCCCCCCCCCCCC[C@H](COP(=O)(O)OC[C@@]1(C#N)O[C@@H](c2ccc3c(N)ncnn23)[C@H](O)[C@@H]1O)OCc1ccc(-n2cncn2)c(C#N)c1 [Compound 30, ((2R,3S,4R)-5-(4-aminopyrrolo[2,1-f][1,2,4]triazin-7-yl)-2-cyano-3,4-dihydroxytetrahydrofuran-2-yl)methyl ((R)-2-((3-cyano-4-(1H-1,2,4-triazol-1-yl)benzyl)oxy)henicosyl) hydrogen phosphate] | 4.96 | > 44400 | – |
| CCCCCCCCCCCCCCCCCCOC[C@H](COP(=O)(O)OC[C@@]1(C#N)O[C@@H](c2ccc3c(N)ncnn23)[C@H](O)[C@@H]1O)OCc1ccc(C#N)cc1OC [Compound 73, ((2R,3S,4R)-5-(4-aminopyrrolo[2,1-f][1,2,4]triazin-7-yl)-2-cyano-3,4-dihydroxytetrahydrofuran-2-yl)methyl ((R)-2-((4-cyano-2-methoxybenzyl)oxy)-3-(octadecyloxy)propyl) hydrogen phosphate] | – | – | > 44400 |
| CCCCCCCCCCCCCCCCCC[C@H](COP(=O)(O)OC[C@@]1(C#N)O[C@@H](c2ccc3c(N)ncnn23)[C@H](O)[C@@H]1O)OCc1cc(Cl)cc(C#N)c1 [Compound 81, ((2R,3S,4R,5S)-5-(4-aminopyrrolo[2,1-f][1,2,4]triazin-7-yl)-2-cyano-3,4-dihydroxytetrahydrofuran-2-yl)methyl ((R)-2-((3-chloro-5-cyanobenzyl)oxy)icosyl) hydrogen phosphate] | 4.52 | – | > 44400 |
| CCCCCCCCCCCCCCCCCCOC[C@H](COP(=O)(O)OC[C@@]1(C#N)O[C@@H](c2ccc3c(N)ncnn23)[C@H](O)[C@@H]1O)OCc1ccc(C#N)c(Cl)c1 [Compound 7, ((2R,3S,4R,5S)-5-(4-aminopyrrolo[2,1-f][1,2,4]triazin-7-yl)-2-cyano-3,4-dihydroxytetrahydrofuran-2-yl)methyl ((R)-2-((3-chloro-4-cyanobenzyl)oxy)-3-(octadecyloxy)propyl) hydrogen phosphate] | 3.88 | – | > 44400 |
| CCCCCCCCCCCCCCCCCCOC[C@H](COP(=O)(O)OC[C@@]1(C#N)O[C@@H](c2ccc3c(N)ncnn23)[C@H](O)[C@@H]1O)OCc1cccc(C#N)n1 [Compound 68, ((2R,3S,4R)-5-(4-aminopyrrolo[2,1-f][1,2,4]triazin-7-yl)-2-cyano-3,4-dihydroxytetrahydrofuran-2-yl)methyl ((R)-2-((6-cyanopyridin-2-yl)methoxy)-3-(octadecyloxy)propyl) hydrogen phosphate] | 8.71 | > 44400 | – |
| CCCCCCCCCCCCCCCCC[C@H](COP(=O)(O)OC[C@@]1(C#N)O[C@@H](c2ccc3c(N)ncnn23)[C@H](O)[C@@H]1O)OCc1cc(F)cc(C#N)c1 [Compound 36, ((2R,3S,4R,5S)-5-(4-aminopyrrolo[2,1-f][1,2,4]triazin-7-yl)-2-cyano-3,4-dihydroxytetrahydrofuran-2-yl)methyl ((R)-2-((3-cyano-5-fluorobenzyl)oxy)nonadecyl) hydrogen phosphate] | 9.56 | > 44400 | – |
